Assay: gradient 5% acetonitrile 3 min, to 50% in 2 min, to 85% in 15 min, held 3 min, 100 µL/min
Settings: column: Zorbax Extend-C18 2.1 x 50 mm; eluents: water / acetonitrile, 0.1% formic acid
Summary of the method: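 The mobile phases were water and acetonitrile, each with 0.1% formic acid, pumped at 100 μL/min through a Zorbax Extend-C18 column (2.1 × 50 mm, 1.8 μm). Pure standards were injected as mixtures of ~100 molecules and detected by a quadrupole time-of-flight mass spectrometer in positive and negative ionization mode. Retention time came from computationally picked adduct peaks, each inspected by hand.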

RP-LC retention time [s]	SMILES
618	O=C(Cn1nc(Cc2ccncc2)c2ccccc2c1=O)Nc1ccc(Cl)cn1
721	CCC(C)NC(=O)c1ccc(CN2CCN(Cc3ccccc3)C(=O)C2=O)cc1 (stereo unspecified)
602	O=C1NC(C(=O)NCC2CC2)Cn2cccc21 (stereo unspecified)
592	CCCn1c(-c2cccc(C(=O)NCc3ccncc3)c2)nc2cccnc21
1190	Cc1ccc(NS(=O)(=O)c2cc(-c3cc(C(F)(F)F)on3)sc2C)cc1Cl
742	CCN1c2ccccc2C(=O)NC12CCN(C(=O)c1cccc(F)c1)CC2
1060	CCOC(=O)C1C(=O)C=C(c2cccs2)CC1c1ccc(OCC)cc1 (stereo unspecified)
1060	COCCn1c(SCc2nc(-c3ccc4c(c3)OCO4)no2)nc2cc3c(cc2c1=O)OCO3
868	Cc1cc(C)c(CN2CCn3c(nn(C)c3=O)C2)c(C)c1
960	Cc1cc(N2CCOCC2)n2nc(-c3ccc(C(C)(C)C)cc3)nc2n1
736	CCCNC(=O)C1CCCN(c2ccc(SCC(=O)Nc3ccccc3OCC)nn2)C1 (stereo unspecified)
654	Cc1cnn(CCC(=O)NC2CCN(c3ccc(=O)n(CC4CC4)n3)C2)c1 (stereo unspecified)
873	COc1ccc(Cl)cc1NC(=O)Nc1ccccc1NC(=O)c1ccco1
1210	CCCCCn1c(=O)c2ccccc2n(Cc2nc(-c3ccc(OC)cc3)no2)c1=O
1100	COc1ccc(-c2noc(-c3nnn(Cc4nc(-c5ccccc5OC)oc4C)c3C)n2)cc1
984	Cc1ccccc1Nc1c(-c2c(F)cccc2Cl)nc2ccc(Cl)cn12
574	COc1ccc(-c2c(C(=O)NCCN3CCN(C)CC3)nc3ccccn23)cc1
559	Cc1cnc(-c2ccccc2)n1C1CN(Cc2cccc(C#N)c2)C1
677	O=C([C@@H]1C[C@H](F)CN1C(=O)c1ccccc1F)N1CCCCC1
685	Cc1nc(-c2ccc3c(c2)n(CC(=O)NC2CC2)c(=O)n3C(C)C)no1
785	CCc1ccc(N2CCn3c2nc2c3c(=O)n(CC(=O)O)c(=O)n2C)cc1
639	CN(C)CC1(O)CCC2(CCN(C(=O)CCC3CCCC3)CC2)CC1

RP-LC retention time [s]	SMILES
988	CC(C)c1noc(-c2cc(=O)n(CC(=O)NCc3ccccc3Cl)c3ccccc23)n1
1180	COc1cccc(C2Cn3nnc(-c4nc(-c5ccccc5C)no4)c3CO2)c1 (stereo unspecified)
708	CC(C)c1ccc(CNC(=O)c2ccc3ncnc(N4CCOCC4)c3c2)cc1
770	COc1ccc(-n2ccc(=O)c(-c3nc(-c4ccccc4F)no3)n2)cc1OC
626	COc1ccc(NC(C)=O)cc1NC(=O)C1CC(=O)N(c2n[nH]c3ccccc23)C1 (stereo unspecified)
1130	O=C(NCCc1c[nH]c2ccccc12)c1noc2c1CSc1ccccc1-2
634	O=C(NCCCn1cccn1)c1c(OCC2CC2)cc(=O)n2c1CCCCC2
757	CN(C)S(=O)(=O)N1CCN(S(=O)(=O)c2ccc(F)cc2)CC1
848	CCS(=O)(=O)N1CC(=O)N(c2cccc(C)c2C)C(C)(C(=O)NCc2ccc(F)cc2)C1 (stereo unspecified)
588	CC(C)(C)C(=O)Nc1cnc(N2CCNCC2)c(C(=O)N2CCCC2)c1
921	O=C(NC1CCCCC1)c1ccc2c(c1)N(Cc1ccccc1)C(=O)CO2
732	CCNc1nc(C)cc(N2CCN(S(=O)(=O)c3ccccc3C(F)(F)F)CC2)n1
943	Cc1ccc(C)c(NC(=O)C2CCN(S(C)(=O)=O)c3ccccc3O2)c1 (stereo unspecified)
789	Cc1cccc(Cn2cc(S(=O)(=O)N3CCOCC3)ccc2=O)c1
627	COc1cccc(N2CCN(C(=O)C3CCCN(c4ncnc5c4nc4n5CCCCC4)C3)CC2)c1 (stereo unspecified)
611	CCOC(=O)CCC(=O)N1CCN(Cc2nc(C(C)(C)C)cs2)CC1
918	Cn1c(=O)n(CC(=O)N2CCCCC2)c(=O)c2cnc(-c3ccccc3)nc21
742	COc1ccc(N2CCn3c(SCC(=O)Nc4nc5ccccc5s4)nnc32)cc1
967	COc1ccc(C(=O)Nc2nc(-c3ccc4c(c3)N(C)C(=O)CO4)c(C)s2)cc1
575	Cc1ccc(NC(=O)C(=O)NCC2(O)CCOCC2)cc1N1CCCC1=O
756	COc1ccc(Br)cc1CNC(=O)CN1C(=O)CSc2ncccc21
896	CCOc1ccc(-c2[nH]ncc2CNS(=O)(=O)Cc2ccc(C)c(C)c2)cc1

RP-LC retention time [s]	SMILES
696	COc1cccc(NC(=O)NCCc2nc3cccnc3n2C2CCCC2)c1
869	O=C(Nc1ncc(Cc2ccc(Cl)cc2)s1)c1ccco1
661	Cc1ccc(CNC(=O)Nc2ccc3nnc(C)n3c2)cc1
691	O=C(CSc1nnc2sc3ccccc3n12)Nc1ccc2c(c1)OCO2
916	CCCCNC(=O)c1nc(Nc2ccc(CC)cc2)c2ccccc2n1
756	Cn1cc(C(CNC(=O)Nc2cccc(Cl)c2)c2cccnc2)c2ccccc21 (stereo unspecified)
774	Fc1ccc(C(c2nnc(-c3ccccc3Cl)o2)N2CCN(c3ccccn3)CC2)cc1 (stereo unspecified)
790	COc1cc(CNC(=O)c2ccc3c(c2)N(C)C(=O)C2CCCCN32)cc(OC)c1OC (stereo unspecified)
705	COCCCNc1c(-c2ccc(C)cc2)nc2sc(C(N)=O)c(C)n12
860	CCN(CC)C(=O)c1cc2c(s1)CCC(C(=O)Nc1ccc3c(c1)OCO3)C2 (stereo unspecified)
969	Cc1cc(C)c(NC(=O)Cn2cc3c(n2)CCCC3)c(C)c1
808	O=C(Cn1c(=O)c(CCC(=O)NC2CCCC2)nc2ccccc21)Nc1ccc(F)cc1
766	COc1ccc(NC(=O)Cn2c(=O)n(-c3ccccc3)c(=O)c3c2cc(C)n3C)cc1
530	CCn1ncc(CN2CCCCC2CCn2cc(-c3ccccc3)nn2)c1C (stereo unspecified)
799	Cc1oc(-c2[nH]ncc2C(=O)N2CCCCC2)cc1S(=O)(=O)Nc1ccc(Cl)cc1
609	CN(C)c1ccc(-c2nc3cnccn3c2Nc2cccc(C(N)=O)c2)cc1
1090	CCn1nnc(NCc2ccc(-c3ccc(C)c(Cl)c3)o2)n1
822	CCN(c1ccccc1)S(=O)(=O)c1cc(-c2[nH]ncc2C(=O)N2CCCCC2)oc1C
926	COc1cccc(-c2noc(COC(=O)C3=CN(C)S(=O)(=O)N=C3C)n2)c1
570	Cc1noc(C)c1S(=O)(=O)N[C@@H]1CN(Cc2ccccc2)C[C@H]1CN(C)C
942	CC1(C(=O)Oc2ccc(Cl)cc2)Cc2ccccc2C(=O)O1 (stereo unspecified)
580	COC(=O)c1ccc(C(=O)NCCN2CCN(C(=O)OC(C)(C)C)CC2)cc1
